Data: patent US8748598B2, “Analogs of 3-O-acetyl-11-keto-beta-boswellic acid” (Laila Nutraceuticals, priority 2004, dated 2014)
Values after ≈ are worked out from the molar mass of the structure shown. Values joined by “and” are separate entries in the source; they are usually repeats but may differ in a detail not shown here. Equal values may be shown once. “Also recorded” adds a separate entry of the source. Read-outs that look alike come from different tables or passages of the source.

Experiments:
MDA-MB-231 [1] = assay: MDA-MB-231 clone (colony) formation in vitro; assay type: cell-based, human; conditions: 8 days
Procedure: Inhibitory efficacy in clone formation of LI-51255 was tested by following the procedure described earlier with some modifications (Wu et al. 2005). Briefly, MDA-MB-231 cells were harvested and seeded into 6-well plates (100 cells/ml). The cells were allowed to grow for 4 days and thereafter, the cells were incubated with DMEM containing either 0.5% DMSO or 25 μg/ml AKBA or different concentrations (1.0, 1.5, 2.0, 2.5 μg/ml) of LI-51255 for further 8 days. Fresh medium containing test agents was replaced at every 24 h. Finally, the wells were washed three times with PBS and fixed in methanol for 15 min. The cells were stained with Giemsa stain and observed under microscope. The image of the stained wells were captured digitally (Kodak Image Station 4000MM, Carestream Health Inc., New Haven, Conn.) and number of colonies were counted and analyzed by using NIH Image J software.

MDA-MB-231 [2] = assay: MTT cell proliferation assay, MDA-MB-231; assay type: cell-based, human; conditions: Table 4
Procedure: (§1) MTT [3-(4,5-dimethylthiazol-2-yl)-2,5-diphenyltetrazolium bromide] incorporation based cell proliferation assay was performed as described previously (Reference). The cytotoxic efficacy of some analogs was evaluated in different cell lines by MTT cell proliferation assay kit (Roche Applied Sciences, Germany). The assay was carried out according to the instruction provided by the vendor. Briefly, in brief, equal numbers of cells was plated in 96-well flat-bottomed plates in 100 μl of medium and were exposed to different analogs selected from 1 to 63 at various concentrations up to 10 μg/ml for a period of three days. Vehicle control culture wells received only a maximum of 0.5% DMSO. Thereafter, 0.5 mg/ml of MTT reagent was added to each well and the microplate was incubated further for 4 h at 37° C. in presence of 5% CO2. Finally, the cells were solubilized by adding solubilizing solution and allowed to incubate at 37° C. overnight. After complete solubilization of the formazan crystals the absorbance was read at 540 nm in a microplate reader (BioRad, USA). The results (mean OD±SD) obtained from quadruplicate wells were used in calculation to determine the inhibition of cell proliferation (50% of inhibitory concentration, IC50) of the test compounds.
(§2) The cytotoxic properties of some analogs were evaluated by MTT incorporation assay. The methodology of the assay procedure was the same as mentioned in example 41.

MCF-7 = assay: MTT cell proliferation assay, MCF-7; assay type: cell-based, human; conditions: Table 4
Procedure: as §1, §2

VEGF = conditions: HUVEC, 24 h, immunoblot; listed as LI51255
Procedure: Equal number of HUVEC human primary endothelial cells was plated in 35 mm culture dishes. The cells exposed to either 0.5% DMSO as vehicle or LI-51255 for 24 h. The cells were lysed in cell lysis buffer. The protein concentration of each lysate was determined by the BCA method (BioRad, Hercules, Calif.). Equal amount of cell lysates proteins was resolved in SDS-PAGE and the transferred proteins on nitrocellulose membrane were reacted with human anti-VEGF antibody (Cell Signaling Technology, Beverly, Mass.) overnight at 4° C. Immunoreactive proteins were detected using were developed with Super SignalWest Pico Chemiluminescent substrate (Pierce Biotechnology Inc.) and the band intensities were analyzed using Molecular Imaging Software, version 4.0 (Eastman Kodak Company, Rochester, N.Y.). Relative density was determined by normalization of the density of each blot with that of corresponding β-actin.

[3] = test system: Human umbilical vein endothelial cells (HUVEC); assay: In vitro capillary-like tube formation assay; assay type: cell-based; conditions: HUVEC on Cultrex, 1, 2.5 and 5 μg/ml, 16 h; listed as LI-51255
Procedure: In vitro capillary formation assay was performed with Human umbilical vein endothelial cells (HUVEC), cultured on 10 mg/ml basement membrane extract (BME—Cultrex®, R&D Systems, USA) bed. The protocol of in vitro endothelial tube formation assay was the same as described earlier with some modifications (Reference). Briefly, four hundred microliters of Cultrex was coated at 4° C. in each well of 24-well culture plate and allowed to gel at 37° C. for 1 h. HUVECs were plated at a density of 7.5×10^4 cells per well with 400 μl of DMEM supplemented with 10% fetal bovine serum and 4.5 g/l D-glucose. The cells were then treated with either 0.5% DMSO or different concentrations of LI-51255 for 16 hours. Pictures were taken under a Nikon Eclipse TS 100 microscope equipped with a Nikon Coolpix camera (FIG. 1B).

AKT pathway = AKT pathway western immunoblot in MDA-MB-231 cells; assay type: cell-based, human; conditions: MDA-MB-231, 10 μg/ml, 0-240 min
Procedure: Equal number of MDA-MB-231 human breast tumor cells (ER-) was plated in 25 cm^2 cell culture flasks. The cells treated with either 0.5% DMSO as vehicle or 10 μg/ml of LI-51255 for 0, 5, 10, 20, 30, 60, 120 and 240 min. The cells were lysed in cell lysis buffer.

[4] = test system: B16 murine melanoma cells; assay: Cell cycle analysis by flow cytometry; assay type: cell-based; conditions: 24 h
Procedure: For flow cytometry, cells were harvested after the treatment period, washed with phosphate buffered saline (PBS), and adjusted the cell count at 2×10^6 cells per milliliter. The cells were fixed in 70% ethanol for 30 min at 4° C. Cells were then washed two times with PBS and stained with 0.5 μg/ml propidium iodide at 37° C. for 30 min and analyzed by flow cytometry. Data were acquired on a FACS Scan flow cytometer (Becton Dickinson) and analyzed by using the Cellquest software.

[5] = test system: B16 F0 melanoma xenograft; assay: B16 F0 melanoma xenograft model; assay type: in vivo, C57B6J mice; conditions: twelve days; for % reduction of tumor burden (w.r.t control): listed as LI-51255
Procedure: In vivo efficacy of LI-51255 against melanoma growth was evaluated in B16 F0 melanoma xenograft model of C57B6J mice. C57B6J mice of 6 weeks age (body weight 18-22 g) were purchased from National Institute of Nutrition (NIN), Hyderabad (India). Animals study protocols were approved by Institutional Ethics Committee (IAEC). All the studies were performed in compliance with the Committee for the Purpose of Control and Supervision of Experiments on Animals (CPCSEA) guidelines and OECD guidelines. Animals were allowed free access to standard feed and provided charcoal filtered and UV exposed water ad libitum. The animals were maintained at a controlled temperature (24-26° C.), humidity (45-70%), and 12 h/12 h of light/dark cycle.
To induce the melanoma tumor formation, sub-confluent B16F0 cells were harvested by brief trypsinization and 1×10^6 cells were injected subcutaneously in 0.2 mL phosphate-buffered saline. Drug treatment was started after development of palpable tumors (3-5 days after implantation of the cells). Drugs were prepared in phosphate-buffered saline (10% DMSO, v/v) and either 75 mg/kg of DTIC or different doses of LI-51255 (10 or 20 mg/kg) was administered daily through intra-peritoneal route. Vehicle treated control animals received only 10% DMSO in phosphate buffered saline. After twelve days of treatment, the animals were sacrificed by CO2 inhalation and tumors were excised and weighed.

[6] = test system: Freund's Adjuvant-induced arthritis in Wistar Albino rats; assay: Freund's adjuvant-induced arthritis, paw edema; assay type: in vivo; conditions: 10 mg/kg daily oral for 30 days; edema 13 days after Freund's Adjuvant
Procedure: The Wistar Albino rats were divided into four groups with […] each group. The two treatment groups, each containing 6 animals, were orally supplemented with one of the two analogs namely glycinate of AKBA (10) or piperazine amide of AKBA (23) in 1% carbomethylcellulose (CMC) at a daily dose of 10 mg/kg for 30 days. The control group of animals received same volume of 1% CMC orally and a positive control group received 10 mg/kg daily dose of prednisolone for direct comparison. Following the 30 day treatment and one hour after the last dose all the animals were challenged with 0.1 mL of 1% solution of Freund's Adjuvant through a subcutaneous injection in the sub-plantar region of left hind paw. The paw volume was measured using a plethymograph. The difference between the paw volumes measured before and 13 days after the Freund's Adjuvant injection was taken as edema volume. The percentage inhibition was calculated by comparing the mean edema of the control group and treatment groups.

Brine shrimp = Brine shrimp lethality; assay type: in vivo; conditions: for IC50: read-out: Brine shrimp lethality IC50
Procedure: The Brine shrimp lethality was evaluated for the analogs 1 to 28 and compared the activities with those of AKBA and a standard compound podophyllotoxin. The data was summarized already disclosed in our earlier application Ser. No. 10/540,257 which is granted under U.S. Pat. No. 7,625,947 which is incorporated herein by reference. The magnitude of Brine shrimp lethality obtained for the analogs has significant correlation with 5-LOX inhibitory activity.

Jurkat = assay type: cell-based, human; set-up: minimum inhibitory concentration (MIC) Jurkat: unit not given here; conditions: MTT assay
Procedure: as §1, §2

PC3M = assay: Cytotoxicity MTT assay, PC3M; assay type: cell-based, human; set-up: minimum inhibitory concentration (MIC) PC3M: unit not given here; conditions: for minimum inhibitory concentration (MIC) PC3M: MTT assay
HePG2 = assay: Cytotoxicity MTT assay, HePG2; assay type: cell-based, human; set-up: unit not given here
Procedure: as §1, §2

[7] = 10 mg/kg daily intra-peritoneal
[8] = 20 mg/kg daily intra-peritoneal

3-O-acetyl-11-keto-β-boswellic acid [AKBA, reference compound]
MDA-MB-231 colony formation (MDA-MB-231 [1]; 25 μg/ml): inhibition of MDA-MB-231 colony formation

CC(=O)OC1CC[C@@]2(C)C(CC[C@]3(C)C2C(=O)C=C2C4[C@@H](C)[C@H](C)CC[C@]4(C)CC[C@]23C)[C@@]1(C)C(=O)NCCN (stereo partly drawn) [Analog 21, N-(3-O-Acetyl-11-keto-[beta]-boswelloyl)-ethylenediamine]
IC50 values MDA-MB-231 (MDA-MB-231 [2]): 3.45 µg/mL (≈ 6.22 µM)
IC50 values MCF-7 (MCF-7): 12.98 µg/mL (≈ 23.4 µM)
VEGF protein expression (VEGF): strongly inhibited
capillary-like tube formation [3]: dose-dependent inhibition; also recorded: inhibits capillary-like tube formation
AKT protein expression (AKT pathway): remains the same
phospho-raf (ser 259) expression (AKT pathway): up-regulation
phosphorylated AKT (ser 473) protein expression (AKT pathway; listed as LI-51255): deactivates AKT pathway; also recorded: time dependent down regulation
MDA-MB-231 colony formation (MDA-MB-231 [1]; 1.0, 1.5, 2.0, 2.5 μg/ml, listed as LI-51255): potentially inhibits the growth and development; also recorded: inhibition of MDA-MB-231 colony formation
cell cycle progression [4]: arrests the growth of B16 murine melanoma cells at the subG1 phase
G1 ([4]; LI-51255 5 (mg/ml)): 74.74
G2/M ([4]; LI-51255 5 (mg/ml)): 12.2
S ([4]; LI-51255 5 (mg/ml)): 11.18
Sub G1 ([4]; LI-51255 5 (mg/ml)): 1.7
G1 ([4]; LI-51255 10 (mg/ml)): 60.25
G2/M ([4]; LI-51255 10 (mg/ml)): 9.19
S ([4]; LI-51255 10 (mg/ml)): 10.87
Sub G1 ([4]; LI-51255 10 (mg/ml)): 19.76
Average weight of tumor [5, 7]: 4.575 gm
% reduction of tumor burden (w.r.t control) [5, 7]: 27.25% and 27.253%
Average weight of tumor [5, 8]: 3.050 gm
% reduction of tumor burden (w.r.t control) [5, 8]: 51.5% and 51.502%

CC(=O)OC1CCC2(C)C(CCC3(C)C2C(=O)C=C2C4C(C)C(C)CCC4(C)CCC23C)C1(C)C(=O)N1CCNCC1 (centres unmarked) [Analog 23]
inhibition of paw edema [6]: 16.4% and 16.3%
IC50 (Brine shrimp; in vivo): 0.88 µM
IC50 values MDA-MB-231 (MDA-MB-231 [2]): IC50 at 5.53 μg/ml
IC50 values MCF-7 (MCF-7): IC50 at 9.03 μg/ml
minimum inhibitory concentration (MIC) Jurkat (Jurkat): 50
cytotoxicity against PC3M (PC3M): significantly more potent
minimum inhibitory concentration (MIC) PC3M (PC3M): 10
minimum inhibitory concentration (MIC) HePG2 (HePG2): 40

CC(=O)O[C@@H]1CC[C@@]2(C)C(CC[C@]3(C)C2C(=O)C=C2C4[C@@H](C)[C@H](C)CC[C@]4(C)CC[C@]23C)[C@@]1(C)N (some centres unmarked) [Analog 25]
inhibitory capabilities against brine shrimp (Brine shrimp; in vivo): potent inhibitory capabilities
IC50 (MDA-MB-231 [2]; Homo sapiens, MDA-MB-231): 13.2 µg/mL (≈ 27.3 µM)
IC50 (MCF-7; Homo sapiens, MCF7): 14 µg/mL (≈ 28.9 µM)
minimum inhibitory concentration (MIC) Jurkat (Jurkat): 50
cytotoxicity against PC3M (PC3M): significantly more potent
minimum inhibitory concentration (MIC) PC3M (PC3M): 30
minimum inhibitory concentration (MIC) HePG2 (HePG2): 50

COc1cc([C@@H]2c3cc4c(cc3[C@H](O)[C@H]3COC(=O)[C@H]23)OCO4)cc(OC)c1OC [podophyllotoxin, reference compound]
IC50 (Brine shrimp): 3 µM
